The target in this assay is T1, Nuclear receptor subfamily 1 group D member 1 (Homo sapiens, UniProt P20393).
T1 sequence (P20393 whole entry): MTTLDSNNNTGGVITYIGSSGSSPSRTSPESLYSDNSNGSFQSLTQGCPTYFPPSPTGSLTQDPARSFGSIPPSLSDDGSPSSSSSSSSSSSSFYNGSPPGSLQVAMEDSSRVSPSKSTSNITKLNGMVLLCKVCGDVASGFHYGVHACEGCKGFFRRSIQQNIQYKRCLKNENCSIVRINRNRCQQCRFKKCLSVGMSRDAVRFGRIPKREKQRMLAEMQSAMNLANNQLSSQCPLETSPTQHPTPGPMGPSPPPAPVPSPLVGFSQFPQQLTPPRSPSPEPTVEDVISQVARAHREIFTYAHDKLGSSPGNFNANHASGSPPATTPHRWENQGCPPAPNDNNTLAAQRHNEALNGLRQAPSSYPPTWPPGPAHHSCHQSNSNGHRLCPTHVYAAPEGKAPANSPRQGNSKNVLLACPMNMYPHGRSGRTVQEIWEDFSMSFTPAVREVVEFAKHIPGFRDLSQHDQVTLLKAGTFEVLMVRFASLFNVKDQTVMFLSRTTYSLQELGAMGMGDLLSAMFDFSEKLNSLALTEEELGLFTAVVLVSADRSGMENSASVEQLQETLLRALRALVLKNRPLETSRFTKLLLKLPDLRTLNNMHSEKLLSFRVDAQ
In words: Increased REV-ERB-alpha LBD dependent repressor activity in HEK293 cell reporter assay. In kind it is cell-based. The conditions noted are these: hek293.

`CC(C)(C)OC(=O)CN(Cc1ccc(Cl)cc1)Cc1ccc([N+](=O)[O-])s1` [GSK-4112]: the IC50 result is “Not Active”.

The values are drawn from ChEMBL document CHEMBL1961794, “Regulation of circadian behaviour and metabolism by synthetic REV-ERB agonists” (Nature, 2012).
